Test results as given in patent publication US20240116985A1, “STAPLED PEPTIDES AND METHODS THEREOF” (priority 2020, published 2024).
Like-named read-outs stand apart in the source and are kept apart here.

Key:
[1] = biological target: T1, full-length beta-Catenin (Uniprot ID P35222) (Homo sapiens, UniProt P35222); test: Fluorescence polarization IC50 (beta-catenin / 5FAM-TCF4 10-53 competition); format: binding
T1 construct: 10 nM full-length beta-Catenin (Uniprot ID P35222)
T1 sequence (P35222 1-781): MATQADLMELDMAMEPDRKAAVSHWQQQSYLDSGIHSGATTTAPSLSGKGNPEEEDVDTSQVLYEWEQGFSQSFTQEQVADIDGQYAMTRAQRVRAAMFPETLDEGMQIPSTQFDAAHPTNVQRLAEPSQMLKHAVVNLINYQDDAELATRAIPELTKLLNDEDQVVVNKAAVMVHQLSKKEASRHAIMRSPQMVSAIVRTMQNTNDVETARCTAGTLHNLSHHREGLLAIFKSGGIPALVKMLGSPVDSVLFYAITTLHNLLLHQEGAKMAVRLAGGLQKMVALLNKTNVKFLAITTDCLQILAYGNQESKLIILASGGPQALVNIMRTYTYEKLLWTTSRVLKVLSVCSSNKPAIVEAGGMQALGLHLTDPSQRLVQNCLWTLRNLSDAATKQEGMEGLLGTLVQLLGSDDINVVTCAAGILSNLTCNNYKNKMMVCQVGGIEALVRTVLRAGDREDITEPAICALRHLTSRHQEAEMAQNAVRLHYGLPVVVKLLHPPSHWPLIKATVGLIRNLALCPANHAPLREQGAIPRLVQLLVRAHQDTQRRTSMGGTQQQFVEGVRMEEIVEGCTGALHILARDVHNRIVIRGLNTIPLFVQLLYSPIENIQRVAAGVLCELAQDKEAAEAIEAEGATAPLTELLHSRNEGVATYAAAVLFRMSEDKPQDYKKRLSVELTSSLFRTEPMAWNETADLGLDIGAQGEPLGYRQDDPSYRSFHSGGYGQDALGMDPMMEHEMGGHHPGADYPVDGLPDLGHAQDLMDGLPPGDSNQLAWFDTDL

CHI Log D procedure = format: physicochemical; conditions: pH 7.4
[2] = fluorescence polarization, read-out: beta-Catenin FP IC50

| IC50 [1, 2] [nM] | IC50 ([1]; read-out: FP EC50) [nM] | CHI Log D (CHI Log D procedure) | SMILES |
| --- | --- | --- | --- |
| 56 | 56 | 2.308 | CC(=O)N1CCC[C@]12CC=CCCCC1(CCCC=CCCCCCC[C@@](C)(C(=O)N[C@@H](Cc3ccccc3)C(=O)N[C@@H](Cc3csc4ccccc34)C(=O)N[C@@H](CCC(N)=O)C(N)=O)NC(=O)[C@H](CCC(N)=O)NC(=O)[C@H](Cc3ccccc3)NC(=O)[C@H](C)NC(=O)[C@H](C)NC(=O)[C@H](CC(=O)O)NC(=O)[C@H](CC(=O)O)NC1=O)NC(=O)[C@H](CC(C)C)NC(=O)[C@H](CC(=O)O)NC2=O (stereo partly drawn) [I-558, Ac-PL3-Asp-Leu-B5-Asp-Asp-Ala-Ala-Phe-Gln-S8-Phe-BztA-Gln-NH2] |
| 43 | 43 | 2.341 | CC(=O)N1CCC[C@]12CC=CCCCC1(CCCC=CCCCCCC[C@@](C)(C(=O)N[C@@H](Cc3ccccc3)C(=O)N[C@@H](Cc3csc4ccccc34)C(=O)N[C@@H](CCC(N)=O)C(N)=O)NC(=O)[C@H](CCC(N)=O)NC(=O)[C@H](Cc3ccccc3)NC(=O)[C@H](C)NC(=O)[C@H](C)NC(=O)[C@H](CC(=O)O)NC(=O)[C@H](CC(=O)O)NC1=O)NC(=O)[C@H](CC(C)C)NC(=O)[C@H](CC(=O)O)NC2=O (stereo partly drawn) [I-559, Ac-PL3-Asp-Leu-B5-Asp-Asp-Ala-Ala-Phe-Gln-S8-Phe-BztA-Gln-NH2] |
| 51 | 51 | 2.269 | CC(=O)N1CCC[C@]12CC=CCCCC1(CCCC=CCCCCCC[C@@](C)(C(=O)N[C@@H](Cc3ccccc3)C(=O)N[C@@H](Cc3csc4ccccc34)C(=O)N[C@@H](CCC(N)=O)C(N)=O)NC(=O)[C@H](CC(N)=O)NC(=O)[C@H](Cc3ccccc3)NC(=O)[C@H](C)NC(=O)[C@H](C)NC(=O)[C@H](CC(=O)O)NC(=O)[C@H](CC(=O)O)NC1=O)NC(=O)[C@H](CC(C)C)NC(=O)[C@H](CC(=O)O)NC2=O (stereo partly drawn) [I-562, Ac-PL3-Asp-Leu-B5-Asp-Asp-Ala-Ala-Phe-Asn-S8-Phe-BztA-Gln-NH2] |
| 76 | 76 | 2.175 | CC(=O)N1CCC[C@]12CC=CCCCC1(CCCC=CCCCCCC[C@@](C)(C(=O)N[C@@H](Cc3ccccc3)C(=O)N[C@@H](Cc3csc4ccccc34)C(=O)N[C@@H](CCC(N)=O)C(N)=O)NC(=O)[C@H](CC(N)=O)NC(=O)[C@H](Cc3ccccc3)NC(=O)[C@H](C)NC(=O)[C@H](C)NC(=O)[C@H](CC(=O)O)NC(=O)[C@H](CC(=O)O)NC1=O)NC(=O)[C@H](C(C)C)NC(=O)[C@H](CC(=O)O)NC2=O (stereo partly drawn) [I-566, Ac-PL3-Asp-Val-B5-Asp-Asp-Ala-Ala-Phe-Asn-S8-Phe-BztA-Gln-NH2] |
| 73 | 73 | 2.158 | CC[C@@H]1NC(=O)[C@H](CC(=O)O)NC(=O)[C@]2(CC=CCCCC3(CCCC=CCCCCCC[C@@](C)(C(=O)N[C@@H](Cc4ccccc4)C(=O)N[C@@H](Cc4csc5ccccc45)C(=O)N[C@@H](CCC(N)=O)C(N)=O)NC(=O)[C@H](CCC(N)=O)NC(=O)[C@H](Cc4ccccc4)NC(=O)[C@H](C)NC(=O)[C@H](C)NC(=O)[C@H](CCC(=O)O)NC(=O)[C@H](CC(=O)O)NC3=O)NC1=O)CCCN2C(C)=O (stereo partly drawn) [I-568, Ac-PL3-Asp-Abu-B5-Asp-Glu-Ala-Ala-Phe-Gln-S8-Phe-BztA-Gln-NH2] |
| 73 | 73 | 2.064 | CC[C@@H]1NC(=O)[C@H](CC(=O)O)NC(=O)[C@]2(CC=CCCCC3(CCCC=CCCCCCC[C@@](C)(C(=O)N[C@@H](Cc4ccccc4)C(=O)N[C@@H](Cc4csc5ccccc45)C(=O)N[C@@H](CCC(N)=O)C(N)=O)NC(=O)[C@H](CC(N)=O)NC(=O)[C@H](Cc4ccccc4)NC(=O)[C@H](C)NC(=O)[C@H](C)NC(=O)[C@H](CC(=O)O)NC(=O)[C@H](CC(=O)O)NC3=O)NC1=O)CCCN2C(C)=O (stereo partly drawn) [I-572, Ac-PL3-Asp-Abu-B5-Asp-Asp-Ala-Ala-Phe-Asn-S8-Phe-BztA-Gln-NH2] |

Continued, molecule first:

| SMILES | IC50 [1, 2] [nM] | IC50 ([1]; read-out: FP EC50) [nM] | CHI Log D (CHI Log D procedure) |
| --- | --- | --- | --- |
| CC[C@H](C)[C@@H]1NC(=O)[C@H](CC(=O)O)NC(=O)[C@]2(CC=CCCCC3(CCCC=CCCCCCC[C@@](C)(C(=O)N[C@@H](Cc4ccsc4)C(=O)N[C@@H](Cc4csc5ccccc45)C(=O)N[C@@H](CCC(N)=O)C(N)=O)NC(=O)[C@H](CC(N)=O)NC(=O)[C@H](Cc4ccccc4)NC(=O)[C@H](C)NC(=O)[C@H](C)NC(=O)[C@H](CC(=O)O)NC(=O)[C@H](CC(=O)O)NC3=O)NC1=O)CCCN2C(C)=O (stereo partly drawn) [I-552, Ac-PL3-Asp-Ile-B5-Asp-Asp-Ala-Ala-Phe-Asn-S8-3Thi-BztA-Gln-NH2] | 15.5 | 15.5 | 2.334 |
| CC[C@H](C)[C@@H]1NC(=O)[C@H](CC(=O)O)NC(=O)[C@]2(CC=CCCCC3(CCCC=CCCCCCC[C@@](C)(C(=O)N[C@@H](Cc4ccccc4OC)C(=O)N[C@@H](Cc4csc5ccccc45)C(=O)N[C@@H](Cc4c[nH]cn4)C(N)=O)NC(=O)[C@H](CC(N)=O)NC(=O)[C@H](Cc4ccccc4)NC(=O)[C@H](C)NC(=O)[C@H](C)NC(=O)[C@H](CC(=O)O)NC(=O)[C@H](CC(=O)O)NC3=O)NC1=O)CCCN2C(C)=O (stereo partly drawn) [I-553, Ac-PL3-Asp-Ile-B5-Asp-Asp-Ala-Ala-Phe-Asn-S8-2OMeF-BztA-His-NH2] | 61 | 61 | 2.398 |
| CC(=O)N1CCC[C@]12CC=CCCCC1(CCCC=CCCCCCC[C@@](C)(C(=O)N[C@@H](Cc3ccccc3)C(=O)N[C@@H](Cc3csc4ccccc34)C(=O)N[C@@H](Cc3c[nH]cn3)C(N)=O)NC(=O)[C@H](CCC(N)=O)NC(=O)[C@H](Cc3ccccc3)NC(=O)[C@H](C)NC(=O)[C@H](C)NC(=O)[C@H](CC(=O)O)NC(=O)[C@H](CC(=O)O)NC1=O)NC(=O)[C@H](CC(C)C)NC(=O)[C@H](CC(=O)O)NC2=O (stereo partly drawn) [I-560, Ac-PL3-Asp-Leu-B5-Asp-Asp-Ala-Ala-Phe-Gln-S8-Phe-BztA-His-NH2] | 81 | 81 | 2.391 |
| CC[C@@H]1NC(=O)[C@H](CC(=O)O)NC(=O)[C@]2(CC=CCCCC3(CCCC=CCCCCCC[C@@](C)(C(=O)N[C@@H](Cc4ccccc4)C(=O)N[C@@H](Cc4csc5ccccc45)C(=O)N[C@@H](Cc4c[nH]cn4)C(N)=O)NC(=O)[C@H](CCC(N)=O)NC(=O)[C@H](Cc4ccccc4)NC(=O)[C@H](C)NC(=O)[C@H](C)NC(=O)[C@H](CCC(=O)O)NC(=O)[C@H](CC(=O)O)NC3=O)NC1=O)CCCN2C(C)=O (stereo partly drawn) [I-570, Ac-PL3-Asp-Abu-B5-Asp-Glu-Ala-Ala-Phe-Gln-S8-Phe-BztA-His-NH2] | 56 | 56 | 2.219 |
| CC[C@H](C)[C@@H]1NC(=O)[C@H](CC(=O)O)NC(=O)[C@]2(CC=CCCCC3(CCCC=CCCCCCC[C@@](C)(C(=O)N[C@@H](Cc4ccccc4)C(=O)N[C@@H](Cc4csc5ccccc45)C(=O)N[C@@H](Cc4c[nH]cn4)C(N)=O)NC(=O)[C@H](CCC(N)=O)NC(=O)[C@H](Cc4ccccc4)NC(=O)[C@H](C)NC(=O)[C@H](C)NC(=O)[C@H](CC(=O)O)NC(=O)[C@H](CC(=O)O)NC3=O)NC1=O)CCCN2C(C)=O (stereo partly drawn) [I-581, Ac-PL3-Asp-Ile-B5-Asp-Asp-Ala-Ala-Phe-Gln-S8-Phe-BztA-His-NH2] | 112 | 112 | 2.458 |
| CC(=O)N1CCC[C@]12CC=CCCCC1(CCCC=CCCCCCC[C@@](C)(C(=O)N[C@@H](Cc3ccccc3)C(=O)N[C@@H](Cc3csc4ccccc34)C(=O)N[C@@H](Cc3c[nH]cn3)C(N)=O)NC(=O)[C@H](CC(N)=O)NC(=O)[C@H](Cc3ccccc3)NC(=O)[C@H](C)NC(=O)[C@H](C)NC(=O)[C@H](CC(=O)O)NC(=O)[C@H](CC(=O)O)NC1=O)NC(=O)[C@H](CCC(C)C)NC(=O)[C@H](CC(=O)O)NC2=O (stereo partly drawn) [I-583, Ac-PL3-Asp-hLeu-B5-Asp-Asp-Ala-Ala-Phe-Asn-S8-Phe-BztA-His-NH2] | 69 | 69 | 2.563 |
| CC(=O)N1CCC[C@]12CC=CCCCC1(CCCC=CCCCCCC[C@@](C)(C(=O)N[C@@H](Cc3ccccc3)C(=O)N[C@@H](Cc3csc4ccccc34)C(=O)N[C@@H](CCC(N)=O)C(N)=O)NC(=O)[C@H](CCC(N)=O)NC(=O)[C@H](Cc3ccccc3)NC(=O)[C@H](C)NC(=O)[C@H](C)NC(=O)[C@H](CCC(=O)O)NC(=O)[C@H](CC(=O)O)NC1=O)NC(=O)[C@H](CCCCNC(=O)CN=[N+]=[N-])NC(=O)[C@H](CC(=O)O)NC2=O (stereo partly drawn) [I-589, Ac-PL3-Asp-[AzAc]Lys-B5-Asp-Glu-Ala-Ala-Phe-Gln-S8-Phe-BztA-Gln-NH2] | – | 48 | 2.119 |
| CC(=O)N1CCC[C@]12CC=CCCCC1(CCCC=CCCCCCC[C@@](C)(C(=O)N[C@@H](Cc3ccccc3)C(=O)N[C@@H](Cc3csc4ccccc34)C(=O)N[C@@H](CCC(N)=O)C(N)=O)NC(=O)[C@H](CCC(N)=O)NC(=O)[C@H](Cc3ccccc3)NC(=O)[C@H](C)NC(=O)[C@H](C)NC(=O)[C@H](CCC(=O)O)NC(=O)[C@H](CC(=O)O)NC1=O)NC(=O)[C@H](CCCCNC(=O)CN=[N+]=[N-])NC(=O)[C@H](CC(=O)O)NC2=O (stereo partly drawn) [I-590, Ac-PL3-Asp-[AzAc]Lys-B5-Asp-Glu-Ala-Ala-Phe-Gln-S8-Phe-BztA-Gln-NH2] | – | 45 | 2.152 |
